Assay results as given in patent publication US5629324A, “Thrombin inhibitors” (Merck & Co., Inc., priority 1995, dated 1997).

Target: T1, human a-thrombin (Homo sapiens, UniProt P00734)
T1 construct: human a-thrombin
Experiment: Proteinase inhibition, human a-thrombin
Type: biochemical
Conditions: 25° C., 0.05M TRIS buffer pH 7.4, 0.15M NaCl, 0.1% PEG
Procedure: Assays of human a-thrombin and bovine trypsin were performed at 25° C. in 0.05M TRIS buffer pH 7.4, 0.15M NaCl, 0.1% PEG. Trypsin assays also contained 1 mM CaCl2.
Concentrations of stock solutions of Z-GPR-afc were determined from measurements of absorbance at 380 nm of the 7-amino-4-trifluoromethyl coumarin produced upon complete hydrolysis of an aliquot of the stock solution by thrombin.
Times required to achieve equilibration between enzyme and inhibitor were determined in control experiments. Initial velocities of product formation in the absence (Vo) or presence of inhibitor (Vi) were measured. Assuming competitive inhibition, and that unity is negligible compared Km /[S], […] (where [S], [I], and e respectively represent the total concentrations, of substrate, inhibitor and enzyme), the equilibrium constant (Ki) for dissociation of the inhibitor from the enzyme can be obtained from the dependence of Vo /Vi on [I] shown in equation 1.

| SMILES | Ki |
| --- | --- |
| N=C(N)N1CCC(CNC(=O)[C@@H]2CCCN2C(=O)C2(O)c3ccccc3-c3ccccc32)CC1 | 1.1 nM |
| N=C(N)N1CCC(CNC(=O)[C@@H]2CCCN2C(=O)CC(c2ccccc2)c2ccccc2)CC1 | 2.7 nM |
